Reference: patent publication US20250197358A1, “PESTICIDALLY ACTIVE THIOSEMICARBAZONE COMPOUNDS” (BASF SE, priority 2022, published 2025)

How the values were obtained:
Test in all cases: whole plant or invertebrate
Format in all cases: in vivo
[1] = system: yellow fever mosquito (Aedes aegypti); conditions: 48 h, larval mortality after 2 days, read-out: mortality in comparison with untreated controls
Protocol: Example B1: Action on Yellow Fever Mosquito (Aedes aegypti)
For evaluating control of yellow fever mosquito (Aedes aegypti) the test unit consisted of 96-well-microtiter plates containing 200 μl of tap water per well and 5-15 freshly hatched A. aegypti larvae.
The active compounds or mixtures were formulated using a solution containing 75% (v/v) water and 25% (v/v) DMSO. Different concentrations of formulated compounds or mixtures were sprayed onto the insect diet at 2.5 μl, using a custom built micro atomizer, at two replications. For experimental mixtures in these tests identical volumes of both mixing partners at the desired concentrations respectively, were mixed together.
After application, microtiter plates were incubated at 28±1° C., 80±5% RH for 2 days. Larval mortality was then visually assessed.

[2] = system: orchid thrips (Dichromothrips corbetti); conditions: adult thrips, 72 hours after treatment, read-out: mortality in comparison with untreated controls
Protocol: Dichromothrips corbetti adults used for bioassay were obtained from a colony maintained continuously under laboratory conditions. For testing purposes, the test compound is diluted in a 1:1 mixture of acetone:water (vol:vol), plus Kinetic® HV at a rate of 0.01% v/v.
Thrips potency of each compound was evaluated by using a floral-immersion technique. All petals of individual, intact orchid flowers were dipped into treatment solution and allowed to dry in Petri dishes. Treated petals were placed into individual re-sealable plastic along with about 20 adult thrips. All test arenas were held under continuous light and a temperature of about 28° C. for duration of the assay. After 3 days, the numbers of live thrips were counted on each petal. The percent mortality was recorded 72 hours after treatment.

[3] = system: boll weevil (Anthonomus grandis); conditions: 120 h, egg and larval mortality after 5 days, read-out: mortality in comparison with untreated controls
[4] = system: tobacco budworm (Heliothis virescens); conditions: 120 h, egg and larval mortality after 5 days, read-out: mortality in comparison with untreated controls
Protocol: For evaluating control of tobacco budworm (Heliothis virescens) the test unit consisted of 96-well-microtiter plates containing an insect diet and 15-25 H. virescens eggs.
Different concentrations of formulated compounds were sprayed onto the insect diet at 10 μl, using a custom-built micro atomizer, at two replications.
After application, microtiter plates were incubated at about 28+1° C. and about 80+5% relative humidity for 5 days. Egg and larval mortality were then visually assessed.

[5] = system: diamond back moth (Plutella xylostella); conditions: in Brassica oleracea, foliar, 3rd instar larvae, 72 hours after treatment, read-out: mortality in comparison with untreated controls
Protocol: Surfactant (Kinetic® HV) is added at a rate of 0.01% (v/v). The test solution is prepared at the day of use.
Leaves of cabbage were dipped in test solution and air-dried. Treated leaves were placed in petri dishes lined with moist filter paper and inoculated with ten 3rd instar larvae. Mortality was recorded 72 hours after treatment. Feeding damages were also recorded using a scale of 0-100%.

[6] = system: southern armyworm (Spodoptera eridania); conditions: in Phaseolus lunatus, 96 h, 2nd instar larvae, 4 days after treatment, read-out: mortality in comparison with untreated controls
Protocol: The 10,000 ppm solution was serially diluted in 100% cyclohexanone to make interim solutions. These served as stock solutions for which final dilutions were made by the Tecan in 50% acetone:50% water (v/v) into 10 or 20 ml glass vials. A nonionic surfactant (Kinetic®) was included in the solution at a volume of 0.01% (v/v). The vials were then inserted into an automated electrostatic sprayer equipped with an atomizing nozzle for application to plants/insects.
Lima bean plants (variety Sieva) were grown 2 plants to a pot and selected for treatment at the 1st true leaf stage. Test solutions were sprayed onto the foliage by an automated electrostatic plant sprayer equipped with an atomizing spray nozzle. The plants were dried in the sprayer fume hood and then removed from the sprayer. Each pot was placed into perforated plastic bags with a zip closure. About 10 to 11 armyworm larvae were placed into the bag and the bags zipped closed. Test plants were maintained in a growth room at about 25° C. and about 20-40% relative humidity for 4 days, avoiding direct exposure to fluorescent light (24 hour photoperiod) to prevent trapping of heat inside the bags. Mortality and reduced feeding were assessed 4 days after treatment, compared to untreated control plants.

Row | SMILES | mortality at 800 ppm [1] [%] | mortality at 500 ppm [2] [%] | mortality at 800 ppm [3] [%] | mortality at 800 ppm [4] [%] | mortality at 500 ppm [5] [%] | mortality at 300 ppm [6] [%]
1 | Cc1ccc(C(C)C)c(N/C(=N/N=C/c2ccc(-c3nn(C)c(NC(=O)c4ccc(OC(F)(F)F)cc4)c3C#N)cc2)SCOC(=O)C(C)C)c1 [Compound C-8, [(Z)—N′-[(E)-[4-[4-cyano-1-methyl-5-[[4-(trifluoromethoxy)benzoyl]amino]pyrazol-3-yl]phenyl]methyleneamino]-N-(2-isopropyl-5-methylphenyl)carbamimidoyl]sulfanylmethyl 2-methylpropanoate] | ≥ 50 | ≥ 75 | ≥ 75 | ≥ 75 | ≥ 75 | ≥ 75
2 | CC(=O)OCS/C(=N\N=C\c1ccc(-c2nn(C)c(NC(=O)c3ccc(OC(F)(F)F)cc3)c2C#N)cc1)Nc1cc(C)ccc1C(C)C [Compound C-7, [(Z)—N′-[(E)-[4-[4-cyano-1-methyl-5-[[4-(trifluoromethoxy)benzoyl]amino]pyrazol-3-yl]phenyl]methyleneamino]-N-(2-isopropyl-5-methylphenyl)carbamimidoyl]sulfanylmethyl acetate] | ≥ 50 | ≥ 75 | ≥ 75 | ≥ 75 | ≥ 75 | ≥ 75
